The source of these data is patent publication US6355799B1, “Substituted benzene compounds, process for their preparation, and herbicidal and defoliant compositions containing them” (ISK Americas Incorporated, priority 1997, dated 2002).

What all share (assay type): in vivo
For test [1], the system named is velvetleaf (Abutilon theophrasti, ABUTH). The experiment in a line: Pre-emerge test, greenhouse herbicide activity screening. Conditions: for Pre-emerge Herbicidal Activity ABUTH (phytotoxicity rating, scale 0-100): rated 14 days after application, 0 = no damage, 100 = complete death; for Pre-emerge herbicidal activity, phytotoxicity rating ABUTH: rating scale 0-100, 14 days after application. In short, it runs like this: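 Compounds in acetone were track-sprayed at 15–1000 g ai/ha: pre-emergence onto soil sown the previous day, then top-watered to incorporate and later bottom-watered; post-emergence onto 2–3 leaf plants with 0.25% v/v surfactant, bottom-watered only. Ratings on a 0–100 phytotoxicity scale were taken at day 14.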

The test system of test [2] is large crabgrass (Digitaria sanguinalis, DIGSA). In words: Post-emerge test, greenhouse herbicide activity screening. Conditions: Digitaria sanguinalis, post-emergence, 336 h, read-out: Post-emerge Herbicidal Activity DIGSA; for pest or weed control at 63 g/ha: 63 g ai/ha; for pest or weed control at 250 g/ha: 250 g ai/ha. The procedure, abridged: (§1)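 Visual ratings on a 0-100 scale (0 no damage, 100 all plants dead) were taken at 14 days after treatment. Rates of 15-1000 g ai/ha in acetone, 187 l/ha, were sprayed onto soil one day after planting (pre-emerge) or onto 2-3 leaf plants with 0.25% v/v surfactant (post-emerge).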

The subject of test [3] is ivyleaf morningglory (Ipomoea hederacea, IPOHE). Described as above. Conditions: Ipomoea, post-emergence, 336 h, read-out: Post-emerge Herbicidal Activity IPOHE; for pest or weed control at 63 g/ha: 63 g ai/ha; for pest or weed control at 250 g/ha: 250 g ai/ha. The procedure, abridged:
as §1

For test [4], the system named is velvetleaf (Abutilon theophrasti, ABUTH). The description is as above. Conditions: Abutilon theophrasti, post-emergence, 336 h, read-out: Post-emerge Herbicidal Activity ABUTH; for pest or weed control at 63 g/ha: 63 g ai/ha; for pest or weed control at 250 g/ha: 250 g ai/ha. The procedure, abridged: as §1
In test [5] the test system is redroot pigweed (Amaranthus retroflexus, AMARE). The test is described as above. As to conditions: Amaranthus retroflexus, post-emergence, 336 h, read-out: Post-emerge Herbicidal Activity AMARE; for pest or weed control at 63 g/ha: 63 g ai/ha; for pest or weed control at 250 g/ha: 250 g ai/ha. The procedure, abridged:
as §1

For test [6], the system named is green foxtail (Setaria viridis, SETVI). The description is as above. As to conditions: Setaria viridis, post-emergence, 336 h, read-out: Post-emerge Herbicidal Activity SETVI; for pest or weed control at 63 g/ha: 63 g ai/ha; for pest or weed control at 250 g/ha: 250 g ai/ha. The procedure, abridged:
as §1

For test [7], the system named is johnsongrass (Sorghum halepense, SORHA). Described as above. As to conditions: Sorghum halepense, post-emergence, 336 h, phytotoxicity rating 0-100 (0 no damage, 100 complete death), 14 days after application, read-out: Post-emerge Herbicidal Activity SORHA. In short, it runs like this:
as §1

The subject of test [8] is sicklepod (Cassia obtusifolia, CASOB). Described as above. As to conditions: Senna obtusifolia, post-emergence, 336 h, read-out: Post-emerge Herbicidal Activity CASOB; for pest or weed control at 63 g/ha: 63 g ai/ha; for pest or weed control at 250 g/ha: 250 g ai/ha. The procedure, abridged: as §1
For test [9], the system named is barnyardgrass (Echinochloa crus-galli, ECHCG). The test is described as above. As to conditions: Echinochloa crus-galli, post-emergence, 336 h, read-out: Post-emerge Herbicidal Activity ECHCG; for pest or weed control at 63 g/ha: 63 g ai/ha; for pest or weed control at 250 g/ha: 250 g ai/ha. The procedure, abridged:
as §1

The test system of test [10] is redroot pigweed (Amaranthus retroflexus, AMARE). In words: Pre-emerge test, greenhouse herbicide activity screening. As to conditions: for Pre-emerge Herbicidal Activity AMARE (phytotoxicity rating, scale 0-100): rated 14 days after application, 0 = no damage, 100 = complete death; for Pre-emerge herbicidal activity, phytotoxicity rating AMARE: rating scale 0-100, 14 days after application. The procedure, abridged:
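Plants grown in 10 cm pots of sandy loam mix received acetone-dissolved compounds through a moving flat-fan nozzle. Doses ranged from 15 to 1000 g ai/ha. Pre-emerge pots were seeded one day earlier, post-emerge pots 8–21 days earlier. Fourteen days on, each pot was graded 0–100 for damage.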

For test [11], the system named is lambsquarters (Chenopodium album, CHEAL). The experiment in a line: Post-emerge test, greenhouse herbicide activity screening. Conditions: Chenopodium album, post-emergence, 336 h, post-emerge, phytotoxicity rating 0-100 at 14 days after application, read-out: Post-emerge Herbicidal Activity CHEAL. In short, it runs like this: as §1
Setting [12] is: phytotoxicity rating 0-100 (0 no damage, 100 complete death), 14 days after application.
Setting [13] is: post-emerge, phytotoxicity rating 0-100 at 14 days after application.

Where two headings read alike, the source gives them in different places.

`Cn1c(C(F)(F)F)cc(=O)n(-c2c(F)cc(Cl)c(OC(F)F)c2N)c1=O` [Compound 1-38, 3-(2-amino-4-chloro-3-difluoromethoxy-6-fluorophenyl)-1-methyl-6-trifluoromethyl-2,4(1H, 3H)-pyrimidinedione]: the “Pre-emerge Herbicidal Activity ABUTH (phytotoxicity rating, scale 0-100)” value in test [1] (63 g ai/ha) and in test [1] (250 g ai/ha) was 100 each time. In addition, the pest or weed control at 63 g/ha came to 10% in test [2] (setting [12]); 80% in test [3] (setting [12]); 100% in [4] (setting [12]); 80% in [5] (setting [12]); 10% in test [6] (setting [12]); 0% in [7] (63 g ai/ha). Also, the pest or weed control at 63 g/ha was 50% in [8] (setting [12]) and 0% in [9] (setting [12]). The pest or weed control at 250 g/ha stood at 80% in [2] (setting [12]); 100% in test [3] (setting [12]); 100% in test [4] (setting [12]); 100% in test [5] (setting [12]); 80% in test [6] (setting [12]); 80% in test [7] (250 g ai/ha). The pest or weed control at 250 g/ha is 90% in [8] (setting [12]) and 80% in test [9] (setting [12]). The “Pre-emerge Herbicidal Activity AMARE (phytotoxicity rating, scale 0-100)” value in [10] (63 g ai/ha) and in test [10] (250 g ai/ha) was 100 each time.
Consider `COc1c(Cl)cc(F)c(N2C(=O)c3ccccc3C2=O)c1NC(=O)c1ccc2ccccc2c1` [Compound 13-3, N-[4-chloro-6-fluoro-3-methoxy-2-(2-naphthoyl)aminophenyl]phthalimide], for which the figures for the “Pre-emerge herbicidal activity, phytotoxicity rating ABUTH” value in test [1] (63 g ai/ha) and in test [1] (250 g ai/ha) were 0 and 20, respectively. The pest or weed control at 63 g/ha was 0% in [2] (setting [13]); 100% in [11] (63 g ai/ha); 75% in test [3] (setting [13]); 100% in test [4] (setting [13]); 90% in test [5] (setting [13]); 10% in test [6] (setting [13]). The figures for the pest or weed control at 63 g/ha in test [8] (setting [13]) and in [9] (setting [13]) were 90% and 0%, respectively. Besides, the pest or weed control at 250 g/ha in [2] (setting [13]) came out at 10%; in test [11] (250 g ai/ha) it was 100%; in [3] (setting [13]), 70%; in [4] (setting [13]), 90%; in [5] (setting [13]), 90%; in test [6] (setting [13]), 30%. Further, the pest or weed control at 250 g/ha was 100% in test [8] (setting [13]) and 20% in test [9] (setting [13]). Besides, the “Pre-emerge herbicidal activity, phytotoxicity rating AMARE” value in test [10] (63 g ai/ha) and in test [10] (250 g ai/ha) was 100 each time.
